Reference: publication PMC2212116 (The Journal of Experimental Medicine, 1998)

Test system: mouse and human MHC class II molecules
Assay: Competitive assay for MHC class II binding, alleles taken together
Details: competition with known conventional peptide antigens that bind to the class II groove

## H2B10–33: epitope for other pathogenic Th cells of lupus, localized in histone H2B10–33
  binding to class II alleles (in words): did not show promiscuous binding
